Source: patent US20260285850A1, “SUBSTITUTED OXAZOLIDINONES AND IMIDAZOLINONES AS HERBICIDES” (FMC CORPORATION, priority 2023, published 2026)

Columns and labels:
Assay type in all cases: in vivo
[1] = tested on: oat, wild (wild oat, Avena fatua); test: Test A preemergence soil spray, visual injury rating 0-100; conditions: 10 days
Outline: (§1)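 Loam-sand pots got test material in surfactant-containing solvent, either as a directed soil spray before emergence or on plants at the one- to two-leaf stage. Visual injury (0-100) was read after ten greenhouse days.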

[2] = tested on: palmer (palmer amaranth, palmer pigweed, Amaranthus palmeri); test: as above; conditions: 10 days
Outline: as §1

[3] = tested on: ragweed (common ragweed, Ambrosia artemisiifolia); test: as above; conditions: 10 days
Outline: as §1

corn (Zea mays) [4] = test: as above; conditions: 10 days
Outline: as §1

[5] = tested on: blackgrass (Alopecurus myosuroides); test: as above; conditions: 10 days
Outline: as §1

soybean (Glycine max) [6] = test: as above; conditions: 10 days
Outline: as §1

[7] = tested on: barnyardgrass (Echinochloa crus-galli); test: as above; conditions: 10 days
Outline: as §1

[8] = tested on: ryegrass, Italian (italian ryegrass, Lolium multiflorum); test: as above; conditions: 10 days
Outline: as §1

[9] = tested on: green foxtail (Setaria viridis); test: as above; conditions: 10 days
Outline: as §1

[10] = tested on: wheat (Triticum aestivum); test: as above; conditions: 10 days
Outline: as §1

kochia (Bassia scoparia) [11] = test: as above; conditions: 10 days
Outline: as §1

[12] = tested on: barnyardgrass (Echinochloa crusgalli); test: Test B flooded paddy test, visual plant response rating 0-100; conditions: 250 g ai/ha, Flood, applied to paddy water, evaluated after 13 days
Outline: (§2)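 Plants were grown to the 2-leaf stage, then pots were flooded to 3 cm above the soil and test compounds were applied directly into the paddy water. Water depth was held there throughout; after 13 days in a greenhouse, injury was scored visually against untreated controls.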

[13] = tested on: ducksalad (Heteranthera limosa); test: as above; conditions: 250 g ai/ha, Flood, applied to paddy water, evaluated after 13 days
Outline: as §2

[14] = tested on: sedge, umbrella (small-flower umbrella sedge, Cyperus difformis); test: as above; conditions: 250 g ai/ha, Flood, applied to paddy water, evaluated after 13 days
Outline: as §2

rice (Oryza sativa) = test: as above; conditions: 250 g ai/ha, Flood, applied to paddy water, evaluated after 13 days
Outline: as §2

[15] = tested on: oat, wild (wild oat, Avena fatua); test: Test A postemergence application, visual injury rating 0-100
Outline: as §1

[16] = tested on: palmer (palmer amaranth, palmer pigweed, Amaranthus palmeri); test: as above
Outline: as §1

[17] = tested on: ragweed (common ragweed, Ambrosia artemisiifolia); test: as above
Outline: as §1

corn (Zea mays) [18] = test: as above
Outline: as §1

[19] = tested on: blackgrass (Alopecurus myosuroides); test: as above
Outline: as §1

soybean (Glycine max) [20] = test: as above
Outline: as §1

[21] = tested on: barnyardgrass (Echinochloa crus-galli); test: as above
Outline: as §1

[22] = tested on: ryegrass, Italian (italian ryegrass, Lolium multiflorum); test: as above
Outline: as §1

[23] = tested on: galium (catchweed bedstraw, Galium aparine); test: as above
Outline: as §1

[24] = tested on: green foxtail (Setaria viridis); test: as above
Outline: as §1

[25] = tested on: wheat (Triticum aestivum); test: as above
Outline: as §1

[26] = tested on: horseweed (Erigeron canadensis); test: as above
Outline: as §1

kochia (Bassia scoparia) [27] = test: as above
Outline: as §1

[28] = 62 g ai/ha, 0 = no effect, 100 = complete control
[29] = 62 g ai/ha, postemergence, 10 days, 0 = no effect, 100 = complete control
[30] = Postemergence, 16 g ai/ha, greenhouse 10 days, 0 no effect, 100 complete control

Compound: CSCCOC(=O)C1CC(NC(=O)C2(C)CN(c3cc(F)cc(F)c3)C(=O)O2)C1 (racemic) [Compound 120]
- Oat, Wild plant response rating ([1]; 16 g ai/ha, 0 to 100 scale): 90
- Oat, Wild plant response rating (0-100) [1, 28]: 90
- Pigweed, Palmer plant response rating ([2]; 16 g ai/ha, 0 to 100 scale): 0
- Pigweed, Palmer plant response rating (0-100) [2, 28]: 20
- Ragweed plant response rating ([3]; 16 g ai/ha, 0 to 100 scale): 10
- Ragweed plant response rating (0-100) [3, 28]: 0
- Corn plant response rating (corn (Zea mays) [4]; 16 g ai/ha, 0 to 100 scale): 0
- Corn plant response rating (0-100) (corn (Zea mays) [4]; [28]): 80
- Blackgrass plant response rating ([5]; 16 g ai/ha, 0 to 100 scale): 40
- Blackgrass plant response rating (0-100) [5, 28]: 80
- Soybean plant response rating (soybean (Glycine max) [6]; 16 g ai/ha, 0 to 100 scale): 0
- Soybean plant response rating (0-100) (soybean (Glycine max) [6]; [28]): 0
- Barnyardgrass plant response rating ([7]; 16 g ai/ha, 0 to 100 scale): 0
- Barnyardgrass plant response rating (0-100) [7, 28]: 60
- Ryegrass, Italian plant response rating ([8]; 16 g ai/ha, 0 to 100 scale): 10
- Ryegrass, Italian plant response rating (0-100) [8, 28]: 80
- Foxtail, Green plant response rating ([9]; 16 g ai/ha, 0 to 100 scale): 20
- Foxtail, Green plant response rating (0-100) [9, 28]: 20
- Wheat plant response rating ([10]; 16 g ai/ha, 0 to 100 scale): 20
- Wheat plant response rating (0-100) [10, 28]: 70
- Kochia plant response rating (kochia (Bassia scoparia) [11]; 16 g ai/ha, 0 to 100 scale): 0
- Kochia plant response rating (0-100) (kochia (Bassia scoparia) [11]; [28]): 30
- Plant response rating, Barnyardgrass (0 to 100 scale, 0 is no effect and 100 is complete control) [12]: 0
- Plant response rating, Ducksalad (0 to 100 scale, 0 is no effect and 100 is complete control) [13]: 0
- Plant response rating, Sedge, Umbrella (0 to 100 scale, 0 is no effect and 100 is complete control) [14]: 0
- Plant response rating, Rice (0 to 100 scale, 0 is no effect and 100 is complete control) (rice (Oryza sativa)): 0
- Oat, Wild plant response rating (0-100) [15, 29]: 80
- Oat, Wild plant response rating (0 to 100 scale) [15, 30]: 30
- Pigweed, Palmer plant response rating (0-100) [16, 29]: 70
- Pigweed, Palmer plant response rating (0 to 100 scale) [16, 30]: 10
- Ragweed plant response rating (0-100) [17, 29]: 40
- Ragweed plant response rating (0 to 100 scale) [17, 30]: 20
- Corn plant response rating (0-100) (corn (Zea mays) [18]; [29]): 100
- Corn plant response rating (0 to 100 scale) (corn (Zea mays) [18]; [30]): 90
- Blackgrass plant response rating (0-100) [19, 29]: 90
- Blackgrass plant response rating (0 to 100 scale) [19, 30]: 70
- Soybean plant response rating (0-100) (soybean (Glycine max) [20]; [29]): 80
- Soybean plant response rating (0 to 100 scale) (soybean (Glycine max) [20]; [30]): 50
- Barnyardgrass plant response rating (0-100) [21, 29]: 100
- Barnyardgrass plant response rating (0 to 100 scale) [21, 30]: 50
- Ryegrass, Italian plant response rating (0-100) [22, 29]: 70
- Ryegrass, Italian plant response rating (0 to 100 scale) [22, 30]: 10
- Galium plant response rating (0-100) [23, 29]: 70
- Galium plant response rating (0 to 100 scale) [23, 30]: 20
- Foxtail, Green plant response rating (0-100) [24, 29]: 90
- Foxtail, Green plant response rating (0 to 100 scale) [24, 30]: 60
- Wheat plant response rating (0-100) [25, 29]: 90
- Wheat plant response rating (0 to 100 scale) [25, 30]: 90
- Horseweed plant response rating (0-100) [26, 29]: 10
- Horseweed plant response rating (0 to 100 scale) [26, 30]: 10
- Kochia plant response rating (0-100) (kochia (Bassia scoparia) [27]; [29]): 80
- Kochia plant response rating (0 to 100 scale) (kochia (Bassia scoparia) [27]; [30]): 0
